Where a SMILES comes first, the peptide text is derived from it. [ ]: non-standard residue; d: D form.
Columns and labels:
[1] = GUV-based molecular transport assay; format: biochemical; conditions: 100 mM KCl 10 mM HEPES pH 7.4, mean ± S.D., N = 4 batches
Experimental: The giant unilamellar vesicles (GUVs) were constructed using gel-assisted swelling methodology and labeled with 0.05 mol% ATTO 550 DOPE[27],[44],[61]. Thin lipid films were spread on polyvinyl alcohol (PVA) coated glass slides using 30 µL of a 1 mg/mL solution of DOPC (Cis and Ent lipids prepared separately). […] The successful formation of vesicles was verified in real time by phase-contrast microscopy. To study the transport across DpPorA and DpPorA DE pores, the peptides were added to GUVs (at a concentration of 10–15 µM in 0.1% DDM) along with the fluorescent hydrophilic molecules (namely Alexa Fluor 350 Hydrazide: M.W-349 Da, Alexa Fluor 555 Hydrazide: M.W-1150 Da, ATTO 488 Dextran: M.W-3000 Da)[62]. The uptake of fluorescent molecules was monitored over 40 min, with time-lapse imaging at every minute for the first 10 min and then at every 5 min for the following 30 min, tracking either single vesicles or multiple vesicles within the same field of view. Later on, individual vesicles were further scanned and imaged to obtain datasets for statistical analysis. Control experiments were conducted under identical conditions using vesicles prepared with the same detergent concentration but without peptide incorporation. At each time point, the vesicle images were blank-subtracted, and the intensity inside the vesicle ( Iin ) was normalized against the intensity outside ( Iout )[27]. Complete permeabilization of the vesicles was marked by Iin/Iout ≥ 0.98 for peptide-reconstituted vesicles, while Iin/Iout ≥ 0.95 was considered as the cut-off for permeabilization in the control vesicles.

[2] = Single-channel electrical recordings in planar lipid bilayers; format: biochemical; conditions: for mean unitary conductance (G): 10 mM HEPES, pH 7.4, DpPorA at +50 mV, n = 83 insertions, DpPorA DE n = 61 insertions; for experimental conductance Gexp: Supplementary Table 1
Experimental: High-resolution electrical recordings for the single-channel characterization were conducted in planar lipid bilayers made up of 1,2-diphytanoyl-sn-glycero-3-phosphocholine (DPhPC, Avanti Polar Lipids)[23],[27],[51]. The lipid bilayer is formed across a polytetrafluoroethylene (Teflon) aperture of ~100 µm in diameter. Teflon is placed between the two sides of the Delrin bilayer chamber, partitioning it into cis and trans compartments (600 µL each). For constructing a solvent-free lipid bilayer, the aperture is made lipophilic by pre-painting both sides with hexadecane in n-pentane (1 μL, 5 mg mL^−1)[51]. After ~10 min, the chambers were filled with buffered electrolytes (1 M KCl, 10 mM HEPES, pH 7.4), and DPhPC in n-pentane (1 μL, 5 mg mL^−1) was added. After ~15 min incubation, the lipid bilayer is formed by raising and lowering the electrolyte solution, bringing the two lipid monolayers together at the aperture. The cis compartment was connected to the ground electrode, while the trans compartment was connected to the working live electrode. Subsequently, DpPorA or DpPorA DE peptides solubilized in 0.1% DDM (1 µL, 100 µg mL^−1) were consistently introduced into the cis compartment of the bilayer. The peptide pore insertion was facilitated by mixing the bilayer chamber and applying a high voltage of +200 mV. The single-channel electrical properties of the peptide pores and analyte-induced pore blockages were examined in 1 M KCl, 10 mM HEPES, pH 7.4. Ion selectivity was assessed under asymmetric salt conditions with a KCl concentration gradient across the planar lipid bilayer (0.15 M cis/1 M trans) (SI text)[27]. The ion current was acquired and amplified using an Axopatch 200B amplifier, digitized with Digidata 1550B digitizer, and recorded using the pClamp 11 acquisition software (Molecular Devices, CA). The current signals were filtered with a 2 kHz low-pass filter frequency and 10 kHz sampling frequency, or with 10 kHz low-pass filter frequency and 50 kHz sampling frequency, in line with the requirement.

[3] = molecular target: proteinase K (Parengyodontium album, UniProt P06873); assay: Proteinase K enzyme activity on peptides (SDS-PAGE); format: in vitro ADME; conditions: 0.5 mg/ml proteinase K, 63°C, 30 min, 10 mM phosphate buffer with 0.1% DDM pH 7.4; SDS-PAGE and bilayer insertion
Experimental: applied through Ag/AgCl electrodes with agarose salt bridges. The pore formation in the […]
The 'reverse potential' (Vm) was calculated using the Goldman-Hodgkin-Katz equation1. […]
In this equation, R is the universal gas constant (8.314 J.K-1.mol-1), T is the temperature in Kelvin (K = °C + 273.15), F is Faraday's constant (96485 C.mol-1), PK+ is the membrane permeability for K+, PCl- is the relative membrane permeability for Cl-, [K+]cis is the concentration of K+ in the cis side, [K+]trans is the concentration of K+ in the trans side, [Cl-]cis is the concentration of Cl- in the cis side and [Cl-]trans is the concentration of Cl- in the trans side.
The reverse potential for DpPorA and DpPorA DE was calculated to be +21 mV and +40 mV, […]
c) Proteinase K enzyme activity on DpPorA and DpPorA DE pores
DpPorA peptides were prepared in 10 mM phosphate buffer with 0.1% DDM (pH 7.4). A final concentration of 0.5 mg/ml of freshly prepared proteinase K solution was added to the samples.
The reaction mixtures were heated at 63°C for 30 min. The proteolysis was terminated by adding 2 mM PMSF (phenylmethyl sulfonyl fluoride).2 The reaction products were loaded on a Mini-PROTEAN® TGX™ precast gel (Bio-Rad) with Protein Standard Marker (Bio-Rad) […]

[4] = DOPC (Cis-DOPC) GUVs, peptide 10 to 15 µM in 0.1% DDM

proteinase K, sequence (P06873 106-384, species assumed): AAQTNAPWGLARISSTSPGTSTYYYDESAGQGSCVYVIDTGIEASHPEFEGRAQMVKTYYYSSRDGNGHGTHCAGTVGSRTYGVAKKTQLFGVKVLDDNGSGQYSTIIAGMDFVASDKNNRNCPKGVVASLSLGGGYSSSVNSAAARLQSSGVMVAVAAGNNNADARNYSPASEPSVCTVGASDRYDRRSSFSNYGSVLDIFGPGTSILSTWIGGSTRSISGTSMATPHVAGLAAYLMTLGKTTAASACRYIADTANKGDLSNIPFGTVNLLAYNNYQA

SMILES | percentage of permeabilization, ATTO 488 Dextran [1, 4] | percentage of permeabilization, Alexa Fluor 350 [1, 4] | percentage of permeabilization, Alexa Fluor 555 [1, 4] | mean unitary conductance (G) ([2]; 1 M KCl) | experimental conductance Gexp [2] | stability to proteinase K [3] | percentage of permeabilization, ATTO 488 Dextran ([1]; Ent-DOPC GUVs, 0.1% DDM) | percentage of permeabilization, Alexa Fluor 350 ([1]; Ent-DOPC GUVs, 0.1% DDM) | percentage of permeabilization, Alexa Fluor 555 ([1]; Ent-DOPC GUVs, 0.1% DDM) | unitary conductance (G) of proteinase K treated peptides ([2]; 1 M KCl, after proteinase K treatment, n = 25) | pores with slightly higher current at negative than positive voltages ([2]; 1 M KCl, current rectification of n = 30 single channels)
CC[C@@H](C)[C@@H](NC(=O)[C@H](N)CCSC)C(=O)N[C@H](CC(=O)O)C(=O)N[C@H](CCC(N)=O)C(=O)N[C@@H](C(=O)N[C@@H](C(=O)N[C@H](CCC(=O)O)C(=O)N[C@@H](C(=O)N[C@H](Cc1ccccc1)C(=O)NCC(=O)N[C@H](CCC(N)=O)C(=O)N[C@H](CC(C)C)C(=O)NCC(=O)N[C@@H](C(=O)N[C@H](Cc1ccccc1)C(=O)N[C@H](CC(C)C)C(=O)NCC(=O)NCC(=O)N[C@H](Cc1ccccc1)C(=O)NCC(=O)N[C@H](CC(N)=O)C(=O)N[C@@H](C(=O)N[C@H](Cc1ccccc1)C(=O)N[C@H](CCCCN)C(=O)NCC(=O)N[C@H](CC(C)C)C(=O)N[C@H](CCCCN)C(=O)N[C@H](C)C(=O)N[C@@H](C(=O)N[C@@H](C(=O)N[C@H](C)C(=O)N[C@@H](C(=O)N[C@@H](C(=O)N[C@@H](C(=O)N[C@H](CCCCN)C(=O)N[C@H](Cc1c[nH]c2ccccc12)C(=O)N[C@@H](C(=O)N[C@H](C)C(=O)N[C@H](C)C(=O)N[C@H](CCCCN)C(=O)O)[C@H](C)O)C(C)C)[C@H](C)CC)[C@H](C)O)[C@H](C)CC)C(C)C)[C@H](C)CC)[C@H](C)O)[C@H](C)CC)[C@H](C)O)[C@H](C)CC [DpPorA DE] (H-[dM][dI][dD][dQ][dI][dT][dE][dI][dF]G[dQ][dL]G[dT][dF][dL]GG[dF]G[dN][dI][dF][dK]G[dL][dK][dA][dV][dI][dA][dT][dI][dV][dK][dW][dT][dA][dA][dK]-OH; N-terminus and C-terminus assumed) | 53.8 ± 8% | 89.2 ± 3.7% | 71.3 ± 3.5% | 3.80 ± 0.2 nS | 3.8 ± 0.2 nS | protease-stable |  |  |  |  | 
CC[C@@H](C)[C@@H](NC(=O)[C@H](N)CCSC)C(=O)N[C@H](CC(=O)O)C(=O)N[C@H](CCC(N)=O)C(=O)N[C@@H](C(=O)N[C@@H](C(=O)N[C@H](CCC(=O)O)C(=O)N[C@@H](C(=O)N[C@H](Cc1ccccc1)C(=O)NCC(=O)N[C@H](CCC(N)=O)C(=O)N[C@H](CC(C)C)C(=O)NCC(=O)N[C@@H](C(=O)N[C@H](Cc1ccccc1)C(=O)N[C@H](CC(C)C)C(=O)NCC(=O)NCC(=O)N[C@H](Cc1ccccc1)C(=O)NCC(=O)N[C@H](CC(N)=O)C(=O)N[C@@H](C(=O)N[C@H](Cc1ccccc1)C(=O)N[C@H](CCCCN)C(=O)NCC(=O)N[C@H](CC(C)C)C(=O)N[C@H](CCCCN)C(=O)N[C@H](CC(=O)O)C(=O)N[C@@H](C(=O)N[C@@H](C(=O)N[C@H](CCC(=O)O)C(=O)N[C@@H](C(=O)N[C@@H](C(=O)N[C@@H](C(=O)N[C@H](CCCCN)C(=O)N[C@H](Cc1c[nH]c2ccccc12)C(=O)N[C@@H](C(=O)N[C@H](C)C(=O)N[C@H](C)C(=O)N[C@H](CCCCN)C(=O)O)[C@H](C)O)C(C)C)[C@H](C)CC)[C@H](C)O)[C@H](C)CC)C(C)C)[C@H](C)CC)[C@H](C)O)[C@H](C)CC)[C@H](C)O)[C@H](C)CC [DpPorA] (H-[dM][dI][dD][dQ][dI][dT][dE][dI][dF]G[dQ][dL]G[dT][dF][dL]GG[dF]G[dN][dI][dF][dK]G[dL][dK][dD][dV][dI][dE][dT][dI][dV][dK][dW][dT][dA][dA][dK]-OH; N-terminus and C-terminus assumed) | 73.0 ± 14.1% | 88.9±7.8% | 67.9± 10.4% | 2.80 ± 0.2 nS | 2.8 ± 0.2 nS | resistant to proteinase K action | 72.70±14.61% | 95.13±3.54% | 70.38±4.93% | 2.8 ± 0.2 nS | 90%

From PMC12491518, “Fabrication of cytotoxic mirror image nanopores” (Nature Communications, 2025)
